How the values were obtained:
Assay type in all cases: biochemical
human JAK2 [1] = target: T1, human JAK2 (Homo sapiens, UniProt O60674); experiment: Method 3 (JAK2): mobility shift assay on Caliper LC3000 reader, 15 μM ATP; set-up: human JAK2 (amino acids 831-1132, PLAZA database pAZB0359) expressed in insect cells; GST (N); made in house; host or cells: insect cells; settings: 0.5 nM JAK2 enzyme, 90 minutes, read-out: IC50 (JAK inhibitory activity, Method 3 (JAK2))
Protocol: (§1) Janus kinase 2 (JAK2) activity was determined by measuring the kinase's ability to phosphorylate a tyrosine residue within a peptide substrate using a mobility shift assay on a Caliper LC3000 reader (Caliper, Hopkinton, Mass.), which measures fluorescence of the phosphorylated and unphosphorylated substrate and calculates a ratiometric value to determine percent turnover.
To measure JAK2 kinase activity, an in-house purified enzyme was used. The enzyme was N-terminal GST-tagged, recombinant, human JAK2 (amino acids 831-1132, PLAZA database pAZB0359) expressed in insect cells. After incubation of the kinase with a FAM labeled SRCtide substrate, adenosine triphosphate (ATP), and MgCl2 for 90 minutes at room temperature, the kinase reaction was stopped by the addition of 36 mM ethylenediaminetetraacetic acid (EDTA). The reaction was performed in 384 well microtitre plates and the reaction products were detected using the Caliper LC3000 Reader.
Target sequence in this assay (O60674 831-1132): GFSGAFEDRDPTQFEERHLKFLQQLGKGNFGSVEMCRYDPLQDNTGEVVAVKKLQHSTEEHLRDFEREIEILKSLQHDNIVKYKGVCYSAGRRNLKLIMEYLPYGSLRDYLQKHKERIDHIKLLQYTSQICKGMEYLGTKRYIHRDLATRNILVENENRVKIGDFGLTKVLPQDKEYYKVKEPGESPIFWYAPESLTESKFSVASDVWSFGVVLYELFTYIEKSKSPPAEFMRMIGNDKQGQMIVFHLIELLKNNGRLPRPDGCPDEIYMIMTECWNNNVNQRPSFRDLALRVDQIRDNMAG

JAK1 = target: T2, JAK1 (Homo sapiens, UniProt P23458); experiment: Method 1 (JAK1): mobility shift assay on Caliper LC3000 reader; settings: 3.5 nM JAK1 enzyme, 5 mM ATP, 90 minutes, room temperature; read-out: IC50 (JAK inhibitory activity, Method 1 (JAK1))
T2 construct: catalytic domain (amino acids 866-1154), GST-tagged, expressed in insect cells; GST; purchased Invitrogen; host or cells: insect cells
T2 sequence (P23458 866-1154): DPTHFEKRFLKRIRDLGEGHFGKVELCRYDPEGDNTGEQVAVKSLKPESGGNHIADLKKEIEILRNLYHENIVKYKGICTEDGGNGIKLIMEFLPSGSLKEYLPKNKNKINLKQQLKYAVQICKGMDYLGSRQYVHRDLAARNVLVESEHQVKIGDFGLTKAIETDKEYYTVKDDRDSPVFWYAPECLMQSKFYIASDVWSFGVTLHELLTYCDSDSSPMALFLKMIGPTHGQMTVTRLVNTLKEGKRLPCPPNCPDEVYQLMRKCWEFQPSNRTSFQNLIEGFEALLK
Text: as §1, with “1 (JAK1)” for “2 (JAK2)”, “may be” for “was”
To measure JAK1 kinase activity, a commercially available purified enzyme may be used. The enzyme may be a recombinant human, catalytic domain (amino acids 866-1154), GST-tagged, expressed in insect cells (Invitrogen, Carlsbad, Calif.). After incubation of the kinase with a FITC labeled JAK1 substrate, adenosine triphosphate (ATP), and MgCl2 for 90 minutes at room temperature, the kinase reaction may be stopped by the addition of 36 mM ethylenediaminetetraacetic acid (EDTA). The reaction may be performed in 384 well microtitre plates and the reaction products may be detected using the Caliper LC3000 Reader.

human JAK2 [2] = target: T1, human JAK2; experiment: Method 1 (JAK2): Amplified Luminescent Proximity Assay (Alphascreen); set-up: His6 (C); purchased Upstate Biotechnology; host or cells: baculovirus in Sf21 cells; settings: 150 pM JAK2 enzyme, 5 mM ATP, 60 minutes, room temperature, read-out: IC50 (JAK inhibitory activity, Method 1 (JAK2))
Text: JAK2 kinase activity may be determined by measuring the kinase's ability to phosphorylate synthetic tyrosine residues within a generic polypeptide substrate using an Amplified Luminescent Proximity Assay (Alphascreen) technology (PerkinElmer, 549 Albany Street, Boston, Mass.).
To measure JAK2 kinase activity, a commercially available purified enzyme may be used. The enzyme may be a C-terminal His6-tagged, recombinant, human JAK2, amino acids 808-end, (Genbank Accession number NM 004972) expressed by baculovirus in Sf21 cells (Upstate Biotechnology MA). After incubation of the kinase with a biotinylated substrate and adenosine triphosphate (ATP) for 60 minutes at room temperature, the kinase reaction may be stopped by the addition of 30 mM ethylenediaminetetraacetic acid (EDTA). The reaction may be performed in 384 well microtitre plates and the reaction products may be detected with the addition of streptavidin coated Donor Beads and phosphotyrosine-specific antibodies coated Acceptor Beads using the EnVision Multilabel Plate Reader after an overnight incubation at room temperature.
Target sequence in this assay (O60674 808-1132 limits assumed): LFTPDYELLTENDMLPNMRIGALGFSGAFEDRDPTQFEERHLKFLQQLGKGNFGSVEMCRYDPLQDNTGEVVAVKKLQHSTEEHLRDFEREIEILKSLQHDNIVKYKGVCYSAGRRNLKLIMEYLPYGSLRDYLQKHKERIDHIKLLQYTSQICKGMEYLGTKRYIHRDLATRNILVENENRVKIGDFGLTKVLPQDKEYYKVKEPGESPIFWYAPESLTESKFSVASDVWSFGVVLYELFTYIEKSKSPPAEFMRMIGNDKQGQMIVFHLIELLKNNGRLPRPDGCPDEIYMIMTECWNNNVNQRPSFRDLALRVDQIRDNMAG

human JAK2 [3] = target: T1, human JAK2; experiment: Method 2 (JAK2): mobility shift assay on Caliper LC3000 reader, 5 mM ATP; set-up: human JAK2 (amino acids 831-1132, PLAZA database pAZB0359) expressed in insect cells; GST (N); made in house; host or cells: insect cells; settings: 0.3 nM JAK2 enzyme, 90 minutes, read-out: IC50 (JAK inhibitory activity, Method 2 (JAK2))
Text: as §1, with “Alternatively, Janus” for “Janus”, “may be” for “was”
Target sequence in this assay (O60674 831-1132): as the sequence (O60674 831-1132) above
To measure JAK2 kinase activity, an in-house purified enzyme may be used. The enzyme may be a N-terminal GST-tagged, recombinant, human JAK2 (amino acids 831-1132, PLAZA database pAZB0359) expressed in insect cells. After incubation of the kinase with a FAM labeled SRCtide substrate, adenosine triphosphate (ATP), and MgCl2 for 90 minutes at room temperature, the kinase reaction may be stopped by the addition of 36 mM ethylenediaminetetraacetic acid (EDTA). The reaction may be performed in 384 well microtitre plates and the reaction products may be detected using the Caliper LC3000 Reader.

Row | IC50 (human JAK2 [1]) | IC50 (JAK1) | IC50 (human JAK2 [2]) | IC50 (human JAK2 [3]) | SMILES
1 | < 3 nM | – | – | – | [2H]C([2H])([2H])n1cnc(Nc2nc(NC(C)c3ncc(F)cc3F)nc(N3C([2H])([2H])C([2H])([2H])OC([2H])([2H])C3([2H])[2H])n2)c1 (single isomer, unassigned) [Example 13b, N-[1-(3,5-Difluoropyridin-2-yl)ethyl]-N′-[1-(^2H3)methyl-1H-imidazol-4-yl]-6-(^2H8)morpholin-4-yl-1,3,5-triazine-2,4-diamine]
2 | – | 65 nM | < 3 nM | – | C[C@H](Nc1nc(Nc2cn(C)cn2)nc(N2CCOCC2)n1)c1ccc(F)cc1 [Example 30, N-[(1S)-1-(4-fluorophenyl)ethyl]-N′-(1-methyl-1H-imidazol-4-yl)-6-morpholin-4-yl-1,3,5-triazine-2,4-diamine]
3 | – | 83 nM | – | 73 nM | Cn1cnc(Nc2nc(NC(CNC(=O)OC(C)(C)C)c3ccc(F)cc3)nc(N3CCOCC3)n2)c1 (single isomer, unassigned) [Example 24a, tert-Butyl [2-(4-fluorophenyl)-2-({4-[(1-methyl-1H-imidazol-4-yl)amino]-6-morpholin-4-yl-1,3,5-triazin-2-yl}amino)ethyl]carbamate]
4 | – | 780 nM | – | 986 nM | [2H]C1([2H])OC([2H])([2H])C([2H])([2H])N(c2nc(Nc3cn(C)cn3)nc(NC(C)c3ncc(F)cc3F)n2)C1([2H])[2H] (single isomer, unassigned) [Example 11a, N-[1-(3,5-Difluoropyridin-2-yl)ethyl]-N′-(1-methyl-1H-imidazol-4-yl)-6-(^2H8)morpholin-4-yl-1,3,5-triazine-2,4-diamine]
5 | – | 15 nM | – | 21 nM | [2H]C1([2H])OC([2H])([2H])C([2H])([2H])N(c2nc(Nc3cn(C)cn3)nc(NC(C)c3ncc(F)cc3F)n2)C1([2H])[2H] (single isomer, unassigned) [Example 11b, N-[1-(3,5-Difluoropyridin-2-yl)ethyl]-N′-(1-methyl-1H-imidazol-4-yl)-6-(^2H8)morpholin-4-yl-1,3,5-triazine-2,4-diamine]
6 | – | 1980 nM | – | 966 nM | Cn1cnc(Nc2nc(NC(c3ccc(F)cc3)C3CCCC3)nc(N3CCOCC3)n2)c1 (stereo not shown) [Example 27, N-[Cyclopentyl(4-fluorophenyl)methyl]-N′-(1-methyl-1H-imidazol-4-yl)-6-morpholin-4-yl-1,3,5-triazine-2,4-diamine]
7 | – | 1020 nM | – | 1710 nM | Cn1cnc(Nc2nc(NC(CNC(=O)OC(C)(C)C)c3ccc(F)cc3)nc(N3CCOCC3)n2)c1 (single isomer, unassigned) [Example 24b, tert-Butyl [2-(4-fluorophenyl)-2-({4-[(1-methyl-1H-imidazol-4-yl)amino]-6-morpholin-4-yl-1,3,5-triazin-2-yl}amino)ethyl]carbamate]
8 | – | 30000 nM | – | > 30000 nM | Cn1cnc(Nc2nc(NC(c3ccc(F)cc3)c3nccn3C)nc(N3CCOCC3)n2)c1 (single isomer, unassigned) [Example 25b, N-[(4-Fluorophenyl)(1-methyl-1H-imidazol-2-yl)methyl]-N′-(1-methyl-1H-imidazol-4-yl)-6-morpholin-4-yl-1,3,5-triazine-2,4-diamine]
9 | – | – | 86 nM | – | C[C@H](Nc1nc(Nc2c[nH]cn2)nc(N2CCOCC2)n1)c1ncc(F)cn1 [Example 23, N-[(1S)-1-(5-Fluoropyrimidin-2-yl)ethyl]-N′-1H-imidazol-4-yl-6-morpholin-4-yl-1,3,5-triazine-2,4-diamine]
10 | – | – | 4 nM | – | Cc1cnc(Nc2nc(N[C@@H](C)c3ncc(F)cn3)nc(N3CCOCC3)n2)s1 [Example 8, N-[(1S)-1-(5-Fluoropyrimidin-2-yl)ethyl]-N′-(5-methyl-1,3-thiazol-2-yl)-6-morpholin-4-yl-1,3,5-triazine-2,4-diamine]
11 | – | – | 4 nM | – | CC(Nc1nc(Nc2cn(C)cn2)nc(N2CCOCC2)n1)c1ncc(F)cc1F (racemic) [Example 10, N-[1-(3,5-Difluoropyridin-2-yl)ethyl]-N′-(1-methyl-1H-imidazol-4-yl)-6-morpholin-4-yl-1,3,5-triazine-2,4-diamine]
12 | 180 nM | – | – | – | [2H]C([2H])([2H])n1cnc(Nc2nc(NC(C)c3ncc(F)cc3F)nc(N3C([2H])([2H])C([2H])([2H])OC([2H])([2H])C3([2H])[2H])n2)c1 (single isomer, unassigned) [Example 13a, N-[1-(3,5-Difluoropyridin-2-yl)ethyl]-N′-[1-(^2H3)methyl-1H-imidazol-4-yl]-6-(^2H8)morpholin-4-yl-1,3,5-triazine-2,4-diamine]
13 | 138 nM | – | – | – | [2H]C([2H])([2H])n1cnc(Nc2nc(NC(C)c3ncc(F)cc3F)nc(N3CCOCC3)n2)c1 (single isomer, unassigned) [Example 12a, N-[1-(3,5-Difluoropyridin-2-yl)ethyl]-N′-[1-(^2H3)methyl-1H-imidazol-4-yl]-6-morpholin-4-yl-1,3,5-triazine-2,4-diamine]
14 | – | 510 nM | 4 nM | – | C[C@H](Nc1nc(Nc2cn(C)cn2)nc(N2CCOCC2)n1)c1ccc(Cl)cc1 [Example 29, N-[(1S)-1-(4-Chlorophenyl)ethyl]-N′-(1-methyl-1H-imidazol-4-yl)-6-morpholin-4-yl-1,3,5-triazine-2,4-diamine]
15 | – | – | 998 nM | – | C[C@H](Nc1nc(Nc2cn(CCc3ccsc3)cn2)nc(N2CCOCC2)n1)c1ncc(F)cn1 [Example 33, N-[(1S)-1-(5-Fluoropyrimidin-2-yl)ethyl]-6-morpholin-4-yl-N′-{1-[2-(3 thienyl)ethyl]-1H-imidazol-4-yl}-1,3,5-triazine-2,4-diamine]
16 | – | – | 3 nM | – | COC1CN(c2nc(Nc3cn(C)cn3)nc(N[C@@H](C)c3ncc(F)cc3F)n2)C1 [Example 19, N-[(1S)-1-(3,5-Difluoropyridin-2-yl)ethyl]-6-(3-methoxyazetidin-1-yl)-N′-(1-methyl-1H-imidazol-4-yl)-1,3,5-triazine-2,4-diamine]
17 | < 3 nM | – | – | – | [2H]C([2H])([2H])n1cnc(Nc2nc(NC(C)c3ncc(F)cc3F)nc(N3CCOCC3)n2)c1 (single isomer, unassigned) [Example 12b, N-[1-(3,5-Difluoropyridin-2-yl)ethyl]-N′-[1-(^2H3)methyl-1H-imidazol-4-yl]-6-morpholin-4-yl-1,3,5-triazine-2,4-diamine]

Source: patent US20110183954A1, “TRICYCLIC 2,4-DIAMINO-L,3,5-TRIAZINE DERIVATIVES USEFUL FOR THE TREATMENT OF CANCER AND MYELOPROLIFERATIVE DISORDERS” (ASTRAZENECA AB, priority 2008, published 2011)
